Test results from US20120315248A1 (priority 2009, published 2012).

Key:
human fibroblasts = assay type: cell-based
[1] = tested on: MxA, ISG-15, OAS-1, and ISG-56 mRNA; assay type: cell-based, human

Compound | protection of fibroblasts from VSV (human fibroblasts) | basal ISG mRNA levels in SW-R [1]
IFN-α | completely protect | –
CCCC(CCC)C(=O)O [VPA, valproic acid] | – | reduced basal mRNA levels for three out of four ISGs
